Tests used:
[1] = test system: cells in which the FOXL2 protein was overexpressed; test: Experiment for cell growth rate; assay type: cell-based, human; settings: for cell growth rate of the C134W mutant: cells overexpressing FOXL2 C134W mutant
Experimental: After the cells in which the FOXL2 protein was overexpressed were treated with a GSK3beta inhibitor (AR-A014418), a cell growth rate according to time was measured, and the result is shown in FIG. 13.

[2] = test system: phosphorylation of the FOXL2 S33 residue; test: Western blotting of the phosphorylation of the FOXL2 S33 residue after kinase inhibitor treatment; assay type: cell-based, human; settings: 10 μM inhibitor, KGN cells overexpressing FOXL2 WT
Experimental: The cultured cells were harvested, and a protein was extracted from the cells using a Nonidet P-40 (NP-40) solution. For quantification of the extracted protein, a Bicinchoninic acid (BCA)™ protein assay was performed. The quantified protein was transferred to a polyvinylidene fluoride (PVDF) membrane by SDS-PAGE electrophoresis, and incubated with an antibody for each protein to be detected. Afterward, the proteins were detected using secondary antibodies and a ChemDoc system.
While the FOXL2 WT was overexpressed in the KGN cells, the cells were treated with 10 μM of the inhibitor of each kinase, cultured for 18 hours and sampled, and then a change in phosphorylation was measured by performing western blotting. Here, the change in phosphorylation was measured using an antibody specifically binding to a peptide consisting of an amino acid of SEQ. ID.
To confirm whether an inhibitory effect of GSK3beta on the FOXL2 S33 residue is a GSK3beta-specific effect, cells in which FOXL2 WT was overexpressed were treated with 10 μM each of AR-A014418 and TWS1119, which are two different GSK3beta inhibitors, sampled, and analyzed by western blotting. Here, AR-A014418 contains a compound represented by Formula 2.

FOXL2 protein = test: Experiment for protein stability (cyclohexamide chase, western blotting); assay type: cell-based, human; settings: FOXL2-overexpressing cells, then 10 μg cyclohexamide, sampled at 0, 6, 12, 24 hours
Experimental: The cultured cells were harvested, and a protein was extracted from the cells using a Nonidet P-40 (NP-40) solution. For quantification of the extracted protein, a Bicinchoninic acid (BCA)™ protein assay was performed. The quantified protein was transferred to a polyvinylidene fluoride (PVDF) membrane by SDS-PAGE electrophoresis, and incubated with an antibody for each protein to be detected. Afterward, the proteins were detected using secondary antibodies and a ChemDoc system. To confirm whether the effect of decreasing the cell viability by inducing the activity of a specific promoter such as TNFR1, FAS, Caspase8 and p21 induces regulation of FOXL2 protein stability by the phosphorylation of the FOXL2 S33 residue, cells in which a FOXL2 protein was overexpressed were treated with a GSK3beta inhibitor (SB 216763) and expressed, treated with 10 μg of cyclohexamide which is a protein synthesis inhibitor, and then sampled at 0, 6, 12, and 24 hours to perform western blotting, and the result is shown in FIG. 12.

[3] = test system: KGN cells stably expressing FOXL2; test: Efficacy on tumor induced by KGN cells in nude mice; assay type: in vivo, BALB/c-nu mice; settings: 2 mg/kg injected directly into tumor-induced region 10 times for two weeks, starting three weeks after cell injection
Text: 6-week-old mature male BALB/c-nu mice were purchased from Central Laboratory Animal, Inc., and allowed for one week to be adapted to environments of the breeding facility and the laboratory in the Chung-Ang University Laboratory Animal Research Center to ensure that the mice had no general symptoms, prior to being used for the experiment. The animals were housed at a density of five mice per polycarbonate cage, and solid food for laboratory animals and water were freely provided. The environments for the breeding laboratory including a temperature, humidity, a ventilation cycle, a light/dark cycle, and illuminance were constantly maintained, and all the experiments were conducted in accordance with the regulation of the Chung-Ang University Animal Research Ethics Committee.
3×10^7 of KGN cells stably expressing FOXL2 were subcutaneously injected into each mouse to induce a tumor. Three weeks after the injection, the GSK3beta inhibitor (AR-A014418) was directly injected into a tumor-induced region at 2 mg/kg 10 times for two weeks and then a tumor size was measured, and the result is shown in FIG. 14.

Structure (SMILES) | cell growth rate of the C134W mutant [1] | phosphorylation of the FOXL2 S33 residue [2] | phosphorylation of the FOXL2 S33 residue ([2]; listed as Formula 1) | FOXL2 protein stability (FOXL2 protein) | size of the tumor induced in the ovarian GCT cells [3] | cell growth rate ([1]; FOXL2-overexpressing cells, growth rate according to time) | cell growth rate of the C134W mutant ([1]; listed as Formula 2) | phosphorylation of the FOXL2 S33 residue ([2]; listed as Formula 2) | size of the tumor induced in the ovarian GCT cells ([3]; listed as Formula 2)
Cn1cc(C2=C(c3ccc(Cl)cc3Cl)C(=O)NC2=O)c2ccccc21 [SB 216763, 3-(2,4-Dichlorophenyl)-4-(1-methyl-1H-indol-3-yl)-1H-pyrrole-2,5-dione] | decreased | reduced | decreased | increased | decreased | – | – | – | –
Nc1cccc(-c2cc3c(Oc4cccc(O)c4)ncnc3[nH]2)c1 [TWS1119] | – | reduced | – | – | – | – | – | – | –
COc1ccc(CNC(=O)Nc2ncc([N+](=O)[O-])s2)cc1 [AR-A014418, N-[(4-Methoxyphenyl)Methyl]-N′-(5-nitro-thiazol-2-yl)urea] | remarkably decreased | reduced | – | – | remarkably decreased | decrease | decreased | decreased | decreased

From patent US20160058738A1, “PHARMACEUTICAL COMPOSITION FOR PREVENTING OR TREATING OVARY GRANULOSA CELL TUMORS CONTAINING GLYCOGEN SYNTHASE KINASE-3 BETA INHIBITOR AS ACTIVE INGREDIENT, AND FUNCTIONAL HEALTH FOOD COMPOSITION” (CHUNG-ANG UNIVERSITY INDUSTRY-ACADEMIC COOPERATION …, priority 2013, published 2016)
